Results published in BindingDB's records for doi:10.1021/acs.jmedchem.2c01800 (China Pharmaceutical University, 2023).

Columns and labels:
[1] = target: T1, Signal transducer and activator of transcription 3 (Homo sapiens, UniProt P40763); assay: Inhibition of IL-23 induced STAT3 phosphorylation in human KIT225 cells by AlphaLISA assay
[2] = target: T1, Signal transducer and activator of transcription 3; assay: Inhibition of IL-23 induced STAT3 phosphorylation in human Jurkat cells incubated for 30 mins by microplate reader analysis
[3] = target: T1, Signal transducer and activator of transcription 3; assay: Inhibition of IL-6 induced STAT3 phosphorylation in human TF-1 cells by AlphaLISA assay

T1 sequence (P40763 whole entry): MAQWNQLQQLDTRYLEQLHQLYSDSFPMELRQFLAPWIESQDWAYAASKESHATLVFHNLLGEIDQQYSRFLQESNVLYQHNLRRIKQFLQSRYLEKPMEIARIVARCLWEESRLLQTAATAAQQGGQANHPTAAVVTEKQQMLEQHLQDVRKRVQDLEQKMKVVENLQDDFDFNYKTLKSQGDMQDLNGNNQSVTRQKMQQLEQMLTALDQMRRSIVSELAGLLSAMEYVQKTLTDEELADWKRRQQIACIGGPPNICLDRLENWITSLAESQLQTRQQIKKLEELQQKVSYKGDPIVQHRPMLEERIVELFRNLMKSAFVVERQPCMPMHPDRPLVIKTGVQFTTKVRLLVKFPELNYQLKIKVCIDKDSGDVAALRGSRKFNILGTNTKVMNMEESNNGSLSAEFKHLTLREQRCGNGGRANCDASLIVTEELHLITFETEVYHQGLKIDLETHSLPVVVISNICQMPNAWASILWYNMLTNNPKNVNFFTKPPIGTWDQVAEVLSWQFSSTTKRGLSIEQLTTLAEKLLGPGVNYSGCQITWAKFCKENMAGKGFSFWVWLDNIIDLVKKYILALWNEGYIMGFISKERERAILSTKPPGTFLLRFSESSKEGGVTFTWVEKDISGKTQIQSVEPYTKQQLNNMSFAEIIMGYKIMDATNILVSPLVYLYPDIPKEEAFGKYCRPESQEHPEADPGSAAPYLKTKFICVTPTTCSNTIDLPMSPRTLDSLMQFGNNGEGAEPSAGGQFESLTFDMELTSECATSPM

| SMILES | IC50 [1] | IC50 [2] | IC50 [3] |
| --- | --- | --- | --- |
| CCOc1cccc(Nc2cc(NC)n3ncc(C(=O)N[C@@H]4CCN(C)C4=O)c3n2)n1 | 29 nM | – | – |
| CNc1cc(Nc2cccn(-c3ccccn3)c2=O)nc2c(C(=O)N[C@@H]3CCN(C)C3=O)cnn12 | 65 nM | – | – |
| [2H]C([2H])([2H])NC(=O)c1nnc(NC(=O)C2CC2)cc1Nc1cccc(-c2ncc(-c3cccnc3C(F)(F)F)cn2)c1OC | – | 2.4 nM | – |
| [2H]C([2H])([2H])NC(=O)c1nnc(Nc2ccc(N3CC(O)C3)cn2)cc1Nc1cccc(-c2ncn(C)n2)c1OC | 5.9 nM | – | – |
| CNC(=O)c1nnc(NC(=O)N2CCC2)cc1Nc1cccc(-c2ncn(C)n2)c1OC [US11053219, Example 28] | 28 nM | – | 5900 nM |
| CNc1cc(Nc2ccccc2OC)nc2c(C(=O)N[C@@H]3CCN(C)C3=O)cnn12 | 9 nM | – | – |
